The target in the first assay is Glutamate receptor ionotropic, kainate 1 (GluK1/GRIK1) (Homo sapiens) (UniProt P39086). The experiment in a line: Antagonist activity at human recombinant GluR5 expressed in HEK cells coexpressing aequorine assessed as inhibition of glutamate-induced Ca2+ influx by luminescence reporter assay. (In general: In a reporter assay the amount or activity of a reporter protein is the signal.)
Chain of Glutamate receptor ionotropic, kainate 1 (GluK1/GRIK1) (Homo sapiens) (P39086 whole entry, looked up): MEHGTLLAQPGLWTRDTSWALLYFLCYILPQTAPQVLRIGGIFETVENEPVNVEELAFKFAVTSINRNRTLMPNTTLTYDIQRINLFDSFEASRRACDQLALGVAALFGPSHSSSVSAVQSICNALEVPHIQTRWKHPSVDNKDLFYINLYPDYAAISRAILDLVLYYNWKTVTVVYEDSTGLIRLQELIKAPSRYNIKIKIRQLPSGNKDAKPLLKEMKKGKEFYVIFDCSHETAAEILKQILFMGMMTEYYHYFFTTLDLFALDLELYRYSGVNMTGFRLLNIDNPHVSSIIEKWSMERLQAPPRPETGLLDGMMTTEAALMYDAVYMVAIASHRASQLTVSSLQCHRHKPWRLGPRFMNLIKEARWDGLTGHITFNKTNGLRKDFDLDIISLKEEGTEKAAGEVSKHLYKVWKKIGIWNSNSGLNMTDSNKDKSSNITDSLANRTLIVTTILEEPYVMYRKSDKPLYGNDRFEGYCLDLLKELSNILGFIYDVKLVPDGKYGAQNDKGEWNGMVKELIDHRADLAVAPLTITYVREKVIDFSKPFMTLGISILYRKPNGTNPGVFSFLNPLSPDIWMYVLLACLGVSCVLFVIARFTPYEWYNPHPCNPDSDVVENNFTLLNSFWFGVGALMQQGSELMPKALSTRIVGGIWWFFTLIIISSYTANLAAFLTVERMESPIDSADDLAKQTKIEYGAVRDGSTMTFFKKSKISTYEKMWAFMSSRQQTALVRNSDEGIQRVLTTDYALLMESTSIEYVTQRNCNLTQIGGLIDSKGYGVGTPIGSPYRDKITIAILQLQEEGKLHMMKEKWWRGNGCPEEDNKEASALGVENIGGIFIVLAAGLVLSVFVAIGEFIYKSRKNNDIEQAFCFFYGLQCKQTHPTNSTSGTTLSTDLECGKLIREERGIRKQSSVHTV
A word on the IC50: it is the concentration needed to halve the response being measured. In the case of `COC(=O)c1c(N)sc(-c2ccccc2)c1C` [Methyl 2-amino-4-methyl-5-phenylthiophene-3-carboxylate], the IC50 is 30 µM.

A further assay deals with Glutamate receptor ionotropic, kainate 2 (GluK2/GRIK2) (Homo sapiens) (UniProt Q13002). Put plainly: Antagonist activity at human recombinant GluR6 expressed in HEK cells coexpressing aequorine assessed as inhibition of glutamate-induced Ca2+ influx at 10 uM by luminescence reporter assay.
Chain of Glutamate receptor ionotropic, kainate 2 (GluK2/GRIK2) (Homo sapiens) (Q13002 whole entry, looked up): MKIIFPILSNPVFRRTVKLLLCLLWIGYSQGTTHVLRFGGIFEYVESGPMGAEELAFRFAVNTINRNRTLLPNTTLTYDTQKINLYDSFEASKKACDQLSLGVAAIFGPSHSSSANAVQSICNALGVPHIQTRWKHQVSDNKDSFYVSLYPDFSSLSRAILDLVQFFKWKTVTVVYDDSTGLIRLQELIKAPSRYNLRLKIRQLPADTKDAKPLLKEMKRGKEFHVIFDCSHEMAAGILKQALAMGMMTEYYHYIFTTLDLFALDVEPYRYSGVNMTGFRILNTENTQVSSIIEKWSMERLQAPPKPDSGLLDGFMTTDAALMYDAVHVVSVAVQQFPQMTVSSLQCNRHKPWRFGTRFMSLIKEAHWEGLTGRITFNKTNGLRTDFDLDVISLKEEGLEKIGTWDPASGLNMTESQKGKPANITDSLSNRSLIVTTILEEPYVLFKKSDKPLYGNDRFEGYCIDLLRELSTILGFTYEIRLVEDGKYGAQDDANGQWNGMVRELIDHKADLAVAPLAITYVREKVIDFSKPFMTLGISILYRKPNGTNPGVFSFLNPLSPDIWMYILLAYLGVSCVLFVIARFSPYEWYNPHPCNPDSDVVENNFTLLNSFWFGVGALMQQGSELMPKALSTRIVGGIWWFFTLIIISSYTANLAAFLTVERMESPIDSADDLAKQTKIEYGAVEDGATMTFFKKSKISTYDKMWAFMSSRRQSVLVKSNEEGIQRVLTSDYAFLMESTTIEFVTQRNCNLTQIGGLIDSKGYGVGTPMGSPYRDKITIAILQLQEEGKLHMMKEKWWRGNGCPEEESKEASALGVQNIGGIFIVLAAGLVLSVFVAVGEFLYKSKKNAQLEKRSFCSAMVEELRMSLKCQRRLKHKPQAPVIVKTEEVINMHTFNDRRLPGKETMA
With `Cc1c(-c2ccccc2)sc(N)c1C(=O)OC(C)(C)C` [Tert-Butyl 2-amino-4-methyl-5-phenylthiophene-3-carboxylate], the IC50 is 3.6 µM.

Consider `CCOC(=O)c1c(N=NN2CCOCC2)sc(-c2ccccc2)c1C` [Ethyl 4-methyl-2-(morpholinodiazenyl)-5-phenylthiophene-3-carboxylate], for which the IC50 was found to be 54 µM. `CCCOC(=O)c1c(N)sc(-c2ccccc2)c1C` [Propyl 2-amino-4-methyl-5-phenylthiophene-3-carboxylate]: the IC50 was found to be 2.4 µM.

Consider `N#Cc1cc2c(cc1[N+](=O)[O-])=NC(=O)C(=O)N=2` [7-nitro-2,3-dioxo-2,3-dihydroquinoxaline-6-carbonitrile], for which the half-maximal inhibitory concentration (IC50) was determined as 23 µM. With `Clc1ccc(CO[C@@H](Cn2ccnc2)c2ccc(Cl)cc2Cl)c(Cl)c1` [Brentan], the IC50 is 6.5 µM. With `Cc1c(-c2ccccc2)sc(N)c1C(=O)c1ccccc1` [(2-Amino-4-methyl-5-phenylthiophen-3-yl)(phenyl)methanone], the IC50 stood at 10.6 µM.

As to `CCOC(=O)c1c(N)sc(-c2ccccc2Cl)c1C` [Ethyl 2-amino-5-(2-chlorophenyl)-4-methylthiophene-3-carboxylate], the IC50 was 5.7 µM. With `COC(=O)c1c(N)sc(-c2ccccc2)c1C` [Methyl 2-amino-4-methyl-5-phenylthiophene-3-carboxylate], the IC50 came to 4.1 µM. The same measure, in the same setting: next, `CCOC(=O)c1c(N)sc(-c2ccccc2)c1-c1ccccc1` [Ethyl 2-amino-4,5-diphenylthiophene-3-carboxylate]: 4.5 µM; `Cc1c(-c2ccccc2)sc(N)c1C#N` [2-Amino-4-methyl-5-phenylthiophene-3-carbonitrile]: 71 µM. Still for that read-out and setting: the value for `CCOC(=O)c1c(N=NN(C)C)sc(-c2ccccc2)c1C` [Ethyl 2-(3,3-dimethyltriaz-1-enyl)-4-methyl-5-phenylthiophene-3-carboxylate] was 38 µM; that for `C[C@H](C[C@H](N)C(=O)O)C(=O)O` [2-Amino-4-methyl-pentanedioic acid] was 4 µM.

For `CCOC(=O)c1c(N)sc(-c2ccccc2)c1C` [Ethyl 2-amino-4-methyl-5-phenylthiophene-3-carboxylate], the IC50 worked out at 0.75 µM. Same read-out and setting: the value for `CCOC(=O)c1c(Cl)sc(-c2ccccc2)c1C` [Ethyl 2-chloro-4-methyl-5-phenylthiophene-3-carboxylate] was 10 µM. As for `CCOC(=O)c1c(N=NC#N)sc(-c2ccccc2)c1C` [Ethyl 2-(cyanodiazenyl)-4-methyl-5-phenylthiophene-3-carboxylate], the IC50 is 21 µM.

As for `CCOC(=O)c1c(N)sc(-c2ccc(F)cc2)c1C` [Ethyl 2-amino-5-(4-fluorophenyl)-4-methylthiophene-3-carboxylate], the IC50 stood at 12 µM.

For `CCOC(=O)c1c(N)sc(-c2ccc(OC)cc2)c1C` [Ethyl 2-amino-5-(4-methoxyphenyl)-4-methylthiophene-3-carboxylate], the IC50 is 8.6 µM. `CCOC(=O)c1c(N=C=S)sc(-c2ccccc2)c1C` [2-isothiocyanato-4-methyl-5-phenylthiophene-3-carboxylate]: the IC50 stood at 3.5 µM.

(Values after BindingDB's records for doi:10.1016/j.ejmech.2009.09.025 (2010).)
